Source: patent US5041567A, “Antibacterial monic acid derivatives” (Beecham Group plc, priority 1982, dated 1991)
In brackets after ≈: the same amount, converted by molar mass. Read-outs that look alike come from different tables or passages of the source.

Experiments:
[1] = tested on: M. suipneumoniae NB12; assay: MIC against mycoplasma in vitro; format: cell-based; settings: Mesomycoplasma hyopneumoniae
[2] = tested on: M. suipneumoniae Str. 11; assay: MIC against mycoplasma in vitro; format: cell-based; settings: Mesomycoplasma hyopneumoniae, STR.11, 144 h
[3] = tested on: M. suipneumoniae PW/C/210; assay: MIC against mycoplasma in vitro; format: cell-based; settings: Mesomycoplasma hyopneumoniae, 144 h
[4] = tested on: M. suipneumoniae UCD 1; assay: MIC against mycoplasma in vitro; format: cell-based; settings: Mesomycoplasma hyopneumoniae, UCD1, 144 h
[5] = tested on: M. bovis NCTC 10131; assay: microbe, parasite or virus in culture; format: cell-based; settings: NCTC10131, 144 h
[6] = tested on: M. bovigenitalium ATCC 14173; assay: MIC against mycoplasma in vitro; format: cell-based; settings: 144 h
[7] = tested on: M. gallisepticum S6; assay: MIC against mycoplasma in vitro; format: cell-based; settings: Mycoplasmoides gallisepticum
[8] = tested on: E. coli NCTC 10418; assay: MIC against human bacteria in vitro; format: cell-based; settings: Escherichia coli, NCTC10418; E. coli NCTC 10418; agar with 5% chocolated horse blood, 18 hours, 37° C.; read-out: MIC
[9] = tested on: Ps. aeruginosa NCTC 10662; assay: MIC against human bacteria in vitro; format: cell-based; settings: Pseudomonas aeruginosa, NCTC10662; Ps. aeruginosa NCTC 10662; 5% chocolated horse blood agar, 18 hours; read-out: MIC
[10] = tested on: Haemophilus influenzae Q1; assay: MIC against human bacteria in vitro; format: cell-based; settings: Haemophilus influenzae Q1; 5% chocolated horse blood agar, 18 hours; read-out: MIC
[11] = tested on: Haemophilus influenzae Wy21; assay: MIC against human bacteria in vitro; format: cell-based; settings: Haemophilus influenzae Wy21; 5% chocolated horse blood agar, 18 hours; read-out: MIC
[12] = tested on: Corynebacterium xerosis 9755; assay: MIC against human bacteria in vitro; format: cell-based; settings: Corynebacterium xerosis 9755; 5% chocolated horse blood agar, 18 hours; read-out: MIC
[13] = tested on: Strep. agalactiae 2788-B; assay: MIC against human bacteria in vitro; format: cell-based; settings: Streptococcus agalactiae; Strep. agalactiae 2788-B; 5% chocolated horse blood agar, 18 hours; read-out: MIC
[14] = tested on: E. coli NCTC 10418; assay: MIC against veterinary bacteria in vitro; settings: Escherichia coli, NCTC10418, 18 h
Protocol: (§1) The activity of the compounds of the Examples against various veterinarily important bacteria, was assayed in vitro using two-fold serial dilutions in Diagnostic Sensitivity Test Agar inoculated with 10^4 organisms.

[15] = tested on: S. dublin S7; assay: MIC against veterinary bacteria in vitro; settings: Salmonella enterica, S7, 18 h
Protocol: as §1

[16] = tested on: Bord. bronchiseptica B09; assay: MIC against veterinary bacteria in vitro; settings: Bordetella bronchiseptica, B09, 18 h
Protocol: as §1

[17] = tested on: Past. multocida PA1; assay: MIC against veterinary bacteria in vitro; settings: Pasteurella multocida, PA1, 18 h
Protocol: as §1

[18] = tested on: Past. haemolytica PA5; assay: MIC against veterinary bacteria in vitro; settings: Mannheimia haemolytica, PA5, 18 h
Protocol: as §1

[19] = tested on: Erysipelothrix rhusiopathiae NCTC 8163; assay: MIC against veterinary bacteria in vitro; settings: Erysipelothrix rhusiopathiae, NCTC8163, 18 h
Protocol: as §1

[20] = tested on: Corynebacterium pyogenes CY1; assay: MIC against veterinary bacteria in vitro; settings: CY1, 18 h
Protocol: as §1

[21] = tested on: Staph. aureus Oxford; assay: MIC against veterinary bacteria in vitro; settings: Staphylococcus aureus, 18 h
Protocol: as §1

[22] = tested on: Strep. dysgalactiae SPD1; assay: MIC against veterinary bacteria in vitro; settings: Streptococcus dysgalactiae, SPD1, 18 h
Protocol: as §1

[23] = tested on: Strep. agalactiae SPA1; assay: MIC against veterinary bacteria in vitro; settings: Streptococcus agalactiae, SPA1, 18 h
Protocol: as §1

[24] = 144 h, M. gallisepticum S6, 6 days, 37° C., read-out: MIC
[25] = M. suipneumoniae UCD 1, 6 days, 37° C., read-out: MIC

| SMILES | MIC ([1]; NB12, 144 h) | MIC [2] | MIC [3] | MIC [5] | MIC [6] | MIC [7, 24] | MIC [8] | MIC [9] | MIC [11] | MIC [12] | MIC [13] | MIC [14] | MIC [15] | MIC [16] | MIC [17] | MIC [18] | MIC [19] | MIC [20] | MIC [21] | MIC [22] | also measured |
| --- | --- | --- | --- | --- | --- | --- | --- | --- | --- | --- | --- | --- | --- | --- | --- | --- | --- | --- | --- | --- | --- |
| COc1ccc(-c2cnc(/C=C(\C)C[C@@H]3OC[C@H](C[C@@H]4O[C@H]4[C@@H](C)[C@H](C)O)[C@@H](O)[C@H]3O)o2)cc1 [Example 4, 5-p-methoxyphenyl-2-(1-normon-2-yl)oxazole A] | 0.5 µg/mL (≈ 1.06 µM) | 0.5 µg/mL (≈ 1.06 µM) | 0.5 µg/mL (≈ 1.06 µM) | 0.025 µg/mL (≈ 0.0528 µM) | 0.05 µg/mL (≈ 0.106 µM) | 2.5 µg/mL (≈ 5.28 µM) | > 100 µg/mL | > 100 µg/mL | 2.5 µg/mL (≈ 5.28 µM) | > 100 µg/mL | 5 µg/mL (≈ 10.6 µM) | > 80 µg/mL | > 80 µg/mL | 20 µg/mL (≈ 42.2 µM) | 5 µg/mL (≈ 10.6 µM) | 40 µg/mL (≈ 84.5 µM) | > 80 µg/mL | > 80 µg/mL | 0.625 µg/mL (≈ 1.32 µM) | 1.25 µg/mL (≈ 2.64 µM) | MIC [4]: 1 µg/mL (≈ 2.11 µM); MIC [10]: 2.5 µg/mL (≈ 5.28 µM) |
| C/C(=C\c1ncc(-c2ccc(C(=O)O)cc2)o1)C[C@@H]1OC[C@H](C[C@@H]2O[C@H]2[C@@H](C)[C@H](C)O)[C@@H](O)[C@H]1O [Example 17, Sodium 4-[2-(1-normon-2-yl)-5-oxazolyl] benzoate A] | 2.5 µg/mL | 2.5 µg/mL | – | 2.5 µg/mL | – | > 10 µg/mL | > 64 µg/mL | > 64 µg/mL | 2 µg/mL | > 64 µg/mL | 32 µg/mL | > 80 µg/mL | > 80 µg/mL | 40 µg/mL | 10 µg/mL | > 80 µg/mL | 80 µg/mL | > 80 µg/mL | 20 µg/mL | 2.5 µg/mL | MIC [4, 25]: 5 µg/mL; MIC ([6]; M. bovigenitalium ATCC 14173, 6 days, 37° C., read-out: MIC): 5 µg/mL; MIC [23]: 40 µg/mL |
| C/C(=C\c1ncc(-c2ccc(Br)cc2)o1)C[C@@H]1OC[C@H](C[C@@H]2O[C@H]2[C@@H](C)[C@H](C)O)[C@@H](O)[C@H]1O [Example 18, 5-p-Bromophenyl-2-(1-normon-2-yl) oxazole A] | – | 0.25 µg/mL (≈ 0.479 µM) | 0.25 µg/mL (≈ 0.479 µM) | 0.05 µg/mL (≈ 0.0957 µM) | 0.1 µg/mL (≈ 0.191 µM) | – | > 128 µg/mL | > 128 µg/mL | 4 µg/mL (≈ 7.66 µM) | > 128 µg/mL | 8 µg/mL (≈ 15.3 µM) | > 80 µg/mL | > 80 µg/mL | 10 µg/mL (≈ 19.1 µM) | 10 µg/mL (≈ 19.1 µM) | 40 µg/mL (≈ 76.6 µM) | 40 µg/mL (≈ 76.6 µM) | > 80 µg/mL | 0.625 µg/mL (≈ 1.2 µM) | 0.156 µg/mL (≈ 0.299 µM) | MIC ([1]; 144 h, M. suipneumoniae NB12, Friis broth, 0.9% agarose, 6 days, 37° C., read-out: MIC): 0.5 µg/mL (≈ 0.957 µM); MIC [4, 25]: 0.5 µg/mL (≈ 0.957 µM); MIC ([7]; S6, 144 h): 1 µg/mL (≈ 1.91 µM); MIC [23]: 0.625 µg/mL (≈ 1.2 µM) |
| C/C(=C\c1ncc(CCCCCCCCO)o1)C[C@@H]1OC[C@H](C[C@@H]2O[C@H]2[C@@H](C)[C@H](C)O)[C@@H](O)[C@H]1O [Example 19, 5-(8-Hydroxyoctyl)-2-(1-normon-2-yl) oxazole A] | 1 µg/mL (≈ 2.02 µM) | 1 µg/mL (≈ 2.02 µM) | 0.25 µg/mL (≈ 0.504 µM) | 0.025 µg/mL (≈ 0.0504 µM) | 0.1 µg/mL (≈ 0.202 µM) | 10 µg/mL (≈ 20.2 µM) | > 128 µg/mL | > 128 µg/mL | 4 µg/mL (≈ 8.07 µM) | 128 µg/mL (≈ 258 µM) | 16 µg/mL (≈ 32.3 µM) | > 80 µg/mL | > 80 µg/mL | 20 µg/mL (≈ 40.4 µM) | – | > 80 µg/mL | > 80 µg/mL | > 80 µg/mL | 2.5 µg/mL (≈ 5.04 µM) | 2.5 µg/mL (≈ 5.04 µM) | MIC [4]: 2.5 µg/mL (≈ 5.04 µM); MIC [23]: 10 µg/mL (≈ 20.2 µM) |
